Results published in patent US20060275873A1, “Autoinducer compound to improve the productivity of natamycin streptomyces strains” (priority 2003, published 2006).
“Also recorded” adds a separate entry of the source.

Legend:
[1] = test system: Streptomyces griseus HH1; settings: stated as well-known; cited from earlier work
[2] = test system: Streptomyces natalensis npi287; experiment: Inducer bioassay: induction of natamycin production in mutant npi287 on solid SPG medium, read as inhibition zone in a Candida utilis overlay; type: cell-based; settings: for inducing activity on natamycin production by npi287: bioassay, Streptomyces natalensis npi287
Method: Dose-response representation is obtained from measuring points at 0, 110, 166, 220, 333, 446 and 500 nM of IP factor. Y-axis: natamycin-induced inhibition zone diameter in Candida utilis overlays in cm (see Example 5); x-axis: concentration of IP factor in nM.
The biological activity of IP factor was determined by its ability to induce natamycin production by mutant strain Streptomyces natalensis npi287 in solid SPG medium. After allowing growth of Streptomyces natalensis npi287 for 2 days at 30° C., samples of culture broths […] or different fractions from IP factor purification were added to wells (7 mm diameter) in the agar layer. The plate was overlaid with a culture of Candida utilis and incubated for 24 h at 28° C. The increment of the diameter of the natamycin inhibition zone after induction of natamycin in strain npi287 was proportional to the amount of IP factor in the sample.
The availability of the pure IP factor made it possible to quantify its inducing effect using the standard inducer assay with the npi287 strain (FIG. 2). […] The IP factor increased two-fold the diameter of natamycin inhibition zone (to above 50 millimeters) at concentration of 350 nM and the assay was saturated at concentrations above 400 nM. A threshold level of IP factor of about 50 nM was always required to detect the induction of natamycin production.

[3] = Solvent extraction of clarified culture broth (partition between organic and aqueous phase); type: physicochemical
Method: The culture broth (15 liters) from Streptomyces natalensis wild type strain grown for 24 h in YED medium in a Braun Biostat C fermentor was concentrated 10-fold in a vacuum evaporator. The concentrated broth was clarified by precipitating the proteins with 6M HCl at pH 3.0 in the cold room. The clarified broth was adjusted to pH 7.0 with concentrated NaOH and extracted. […] Enough IP factor could be extracted by repeated extractions with ethyl acetate to allow a good purification. The organic phases were then collected and concentrated to dryness under vacuum and the resultant product was dissolved in 100 ml of 10% methanol (v/v) and applied to an active carbon column (30×3 cm) previously equilibrated with the same solvent (10% methanol, v/v). The retained compounds including the IP factor were fractionated by stepwise elution (flow 2 ml/min) with 50% methanol (v/v), 100% methanol, 10% ethyl acetate in methanol (v/v), 50% ethyl acetate in methanol (v/v), and pure ethyl acetate (100%). […] The IP factor-containing fraction was then concentrated, applied onto a Sephadex GIO column (2000×1 cm) and eluted with distilled water (flow 0.8 ml/min). This size exclusion chromatography yielded 40 ml of active fractions.

[4] = test system: Streptomyces griseus HH1; experiment: Restoration of streptomycin production in the A factor negative strain; type: cell-based; settings: HPLC-pure IP factor, Streptomyces griseus HH1 mutant
Excerpt: In the examples given below, the following strains were used: The wild type Streptomyces natalensis ATCC 27448 was used as the parental strain to isolate different npi mutants. Streptomyces natalensis cultures were maintained in solid TBO sporulation medium (containing 20 g tomato paste per liter; 25 g oat meal per liter; and 25 g agar per liter) as described by Aparicio et al. (Chem. Biol. 7, 895-905, 2000). Candida utilis CECT 1061 (synonym Pichia jadinii) was used as test strain in the bioassay of the antifungal activity of natamycin. Cultures of Streptomyces griseus IFO 13350 (formerly described as Streptomyces bikiniensis IFO 13350) were used to produce A factor in YMPG medium (Horinouchi et al., J. Antibiot. 38, 636-641, 1985). Streptomyces griseus HH1 (an A factor negative strain) was used to quantify the A factor inducing activity.
The Streptomyces griseus 35570 A factor was purified by following its biological activity on the test strain Streptomyces griseus HH1, a mutant lacking streptomycin production due to its deficiency in A factor biosynthesis.

[5] = test system: Streptomyces natalensis (wild type and npi287 mutant); experiment: Stimulation of sporulation of Streptomyces natalensis; type: cell-based
[6] = test system: Streptomyces natalensis ATCC 27448; experiment: Natamycin production in liquid cultures of the wild type strain with exogenous auto inducer; type: cell-based; settings: 300 nM
Excerpt: FIG. 3A: Cell dry weight (▪); y-axis: dry weight concentration in mg/ml; x-axis: time in hours. FIG. 3B: (▴) Control without IP factor addition; (O) with IP factor addition; y-axis: natamycin concentration in μg/ml; x-axis: time in hours.
FIG. 4A: Cell dry weight (♦); y-axis: dry weight concentration in mg/ml; x-axis: time in hours. FIG. 4B: (▪) Control without IP factor addition; (□) with IP factor addition; y-axis: natamycin concentration in μg/ml; x-axis: time in hours.
FIG. 5A: Cell dry weight (▴); y-axis: dry weight concentration in mg/ml; x-axis: time in hours. FIG. 5B: (▪) Control without IP factor addition; (□) with IP factor addition; y-axis: natamycin concentration in μg/ml; x-axis: time in hours.
Four different complex media were used for quantification of the IP factor concentration and its relationship to natamycin production. These include: NBG medium (OXOID) supplemented with glucose (5 g/l); YEME medium (yeast extract 3 g/l; peptone […]; malt extract 3 g/l and glucose 10 g/l); TSB medium (DIFCO) and YED medium (yeast extract 10 g/l; glucose 10 g/l). In addition two defined media were also used to quantify the inducer production: Streptomyces MM (Kieser et al. in “Practical Streptomyces Genetics”, John Innes Foundation, Norwich, UK, 2000) and Lechevalier defined medium (Martin and McDaniel, Eur. J. Appl. Microbiol. 3, 135-144, 1976).
The production of natamycin in liquid cultures was routinely quantified by spectrophotometric determination at 319 nm. A 0.5 ml aliquot of the culture was extracted with 5 ml of methanol and diluted with distilled water; the concentration of natamycin was quantified as described previously (Aparicio et al. (Chem. Biol. 7, 895-905, 2000)) using a pure sample of natamycin (Sigma Chem. Co) as standard.

SMILES: CC(C)CCCCC(=O)[C@@H]1C(=O)OCC1CO (stereo partly drawn) [A factor, 2-(6′-methylheptanoyl)-3R-hydroxymethyl-4-butanolide, reference compound]
- stimulation of sporulation [1]: stimulation of sporulation
- inducing activity on natamycin production by npi287 [2]: some inducing activity; also recorded: elicited natamycin production

SMILES: NC(CO)(CO)C(N)(CO)CO [IP factor, 2,3-diamino-2,3-bis(hydroxymethyl)-1,4-butanediol]
- part remaining in the aqueous phase ([3]; ethyl acetate extraction at acidic, neutral or slightly basic (pH 7.5) pH): significant proportion
- part remaining in the aqueous phase ([3]; repeated extraction with chloroform): about 80%
- diameter of natamycin inhibition zone ([2]; 350 nM IP factor): above 50 millimeters
- fold increase of the diameter of natamycin inhibition zone ([2]; 350 nM IP factor): two-fold
- inducing activity on natamycin production by npi287 [2]: strong inducing activity
- threshold level required to detect induction of natamycin production ([2]; standard inducer assay): about 50 nM
- IP factor concentration to which npi287 clearly responded ([2]; standard inducer assay, FIG. 2): 100 nM
- concentration above which the assay was saturated ([2]; standard inducer assay, FIG. 2): above 400 nM
- upper concentration of linear response of antibiotic production ([2]; standard inducer assay, FIG. 2): up to 350 nM
- restoration of streptomycin production [4]: negative
- stimulation of sporulation ([5]; npi287 mutant): did not stimulate sporulation
- stimulation of sporulation ([5]; wild type Streptomyces natalensis): did not stimulate sporulation
- production of natamycin on addition of exogenous inducer ([6]; NBG medium, FIG. 4): stimulated
- production of natamycin on addition of exogenous inducer ([6]; TSB medium, FIG. 3): stimulated
- production of natamycin on addition of exogenous inducer ([6]; YEME medium, FIG. 5): stimulated
